Read-outs that look alike come from different tables or passages of the source.
Columns and labels:
Microsomal stability = type: in vitro ADME; conditions: rat, liver microsomes, pH 7.4; read-out: Microsome Stability t1/2
Experimental: The metabolic stability of TXA11114 was evaluated in liver microsomes from human (HLM), dog (DLM), rat (RLM), and mouse (MLM). Test compound disappearance over time was monitored by LC-MS/MS. Verapamil (HLM and RLM) and imipramine (DLM and MLM) were used as positive controls. […] Aliquots (70 µL) were transferred to 96-well reaction plates and pre-incubated at 37 °C for 5 min. Reactions were initiated by adding 30 µL NADPH (final concentration 1 mM). Control incubations lacking NADPH were included to assess non-enzymatic degradation. Reactions were terminated at 0, 5, 15, 30, and 60 min by the addition of 100 µL ice-cold acetonitrile containing glipizide as an internal standard.

Plasma stability = type: in vitro ADME; conditions: read-out: Plasma stability t1/2
Experimental: Plasma stability was assessed by incubating the compound in plasma at 37 °C and monitoring parent compound disappearance over time by LC-MS/MS. Half-life values were calculated assuming first-order kinetics.

[1] = Plasma protein binding (equilibrium dialysis); type: in vitro ADME
Experimental: Plasma protein binding was determined experimentally using equilibrium dialysis, with compound concentrations in plasma and buffer quantified by LC-MS/MS.

CYP2D6 = biological target: T1, CYP2D6 (Homo sapiens, UniProt P10635); experiment: Cytochrome P450 inhibition; type: in vitro ADME; conditions: human liver microsomes; read-out: CYP Inhibition IC50, 2D6
T1 construct: from tissue; host or cells: human liver microsomes
Experimental: (§1) Inhibition of CYP1A2, CYP2D6, CYP2C9, CYP2C19, and CYP3A4 by TXA11114 was assessed in human liver microsomes by measuring the inhibition of probe substrate metabolism. Phenacetin, bufuralol, diclofenac, S-mephenytoin, and midazolam were used as probe substrates for CYP1A2, CYP2D6, CYP2C9, CYP2C19, and CYP3A4, respectively. Corresponding metabolites (acetaminophen, OH-bufuralol, 4-OH diclofenac, 4-OH mephenytoin, and 1-OH midazolam) were quantified by LC-MS/MS. Selective inhibitors (fluvoxamine (CYP1A2), quinidine (CYP2D6), sulfaphenazole (CYP2C9), ticlopidine (CYP2C19), and ketoconazole (CYP3A4)) were used as positive controls. Test and control compounds, prepared in DMSO at various concentrations, were spiked into 2× microsomal reaction mixtures, and 50 µL aliquots were transferred to individual wells. Probe substrates (25 µL, 4× concentration) were added to the respective wells and pre-incubated for 5 min at 37 °C. Reactions were initiated by the addition of 25 µL NADPH (4×) and incubated for 5 min (CYP3A4), 10 min (CYP1A2, CYP2D6, CYP2C9), or 20 min (CYP2C19). Reactions were quenched with 100 µL ice-cold acetonitrile containing glipizide as an internal standard. Plates were centrifuged at 4000 rpm for 15 min, and 100 µL supernatants were analyzed by LC-MS/MS in MRM mode. […] Percent inhibition was calculated as 100 − percent activity. IC50 values were determined using GraphPad Prism (version 5.02).

CYP3A4 = biological target: T2, CYP3A4 (Homo sapiens, UniProt P08684); experiment: Cytochrome P450 inhibition; type: in vitro ADME; conditions: human liver microsomes; read-out: CYP Inhibition IC50, 3A4
T2 construct: from tissue; host or cells: human liver microsomes
Experimental: as §1

P. aeruginosa ATCC 27853 = experiment: Nitrocefin assay for outer-membrane permeabilization; type: cell-based, Pseudomonas aeruginosa
Source text: The significant toxicity of previously identified EPIs has prevented their clinical use. So, understanding the TXA11114 mechanism of action (MoA) was of paramount importance to eliminate off-target effects that may arise from other activities besides efflux pump inhibition. Historically EPIs are known to augment the action of traditional antibiotics by compromising the integrity of bacterial membranes, allowing increased drug accumulation. One of the major concerns of earlier EPIs was their ability to disrupt bacterial membranes. Two approaches were taken to investigate if membrane disruption played a role in the potentiation of antibiotics seen in Table 2 by TXA11114: (1) a flow cytometry-based propidium iodide (PI) assay to monitor inner-membrane permeabilization, and (2) a nitrocefin (NCF) assay to monitor outer-membrane permeabilization. NCF is a chromogenic cephalosporin that changes from yellow to red when the amide bond in the β-lactam ring is hydrolyzed by a β-lactamase. The rate of hydrolysis in intact cells is slow, as it is limited by the rate of diffusion of […]. […] Cells with intact membranes exclude PI and remain non-fluorescent, while cells with compromised membrane integrity allow PI to enter and bind to DNA, resulting in fluorescence. […]

P. aeruginosa = experiment: MIC potentiation of antimicrobial agents by EPIs; type: cell-based, Pseudomonas aeruginosa; conditions: 1/16 MIC
Experimental: In contrast, the activities of gentamicin and imipenem were unchanged in the presence of TXA11114 under the conditions tested. Although gentamicin can be transported by the MexXY efflux system, the absence of potentiation in this assay is not sufficient to draw conclusions regarding MexXY inhibition or overall efflux specificity.
MIC assays for potentiation of antimicrobial activity against P. aeruginosa were performed as described previously.

in vitro = type: cell-based; conditions: human
Experimental: The cytotoxicity of TXA11114 was evaluated in HEK293T and A549 cell lines using the CellTiter-Glo™ assay (Promega, Madison, WI, USA). HEK293T cells (human embryonic kidney cells transformed with sheared adenovirus 5 DNA and expressing SV40 large T antigen) and A549 cells (human alveolar basal epithelial adenocarcinoma cell line; hypotriploid with a modal chromosome number of 66) were obtained from Sai Life Sciences Ltd. (Hyderabad, India). These cell lines are well-characterized and consistent with commonly used reference lines (e.g., A549, ATCC CCL-185).
TXA11114 was tested in a dose–response format with a top concentration of 20 µM using 2-fold serial dilutions in triplicate. Doxorubicin and staurosporine were included as reference controls. Cells (1200 cells/well in 27 µL complete medium) were seeded into 384-well plates and incubated overnight at 37 °C with 5% CO2. The following day, cells were treated with 3 µL of 10× serially diluted compounds. After a 24 h incubation, CellTiter-Glo reagent was added, and plates were gently shaken for 15–20 min at room temperature. Luminescence was measured using an EnVision multimode plate reader (PerkinElmer, Thane, India).

T2 sequence (P08684 whole entry): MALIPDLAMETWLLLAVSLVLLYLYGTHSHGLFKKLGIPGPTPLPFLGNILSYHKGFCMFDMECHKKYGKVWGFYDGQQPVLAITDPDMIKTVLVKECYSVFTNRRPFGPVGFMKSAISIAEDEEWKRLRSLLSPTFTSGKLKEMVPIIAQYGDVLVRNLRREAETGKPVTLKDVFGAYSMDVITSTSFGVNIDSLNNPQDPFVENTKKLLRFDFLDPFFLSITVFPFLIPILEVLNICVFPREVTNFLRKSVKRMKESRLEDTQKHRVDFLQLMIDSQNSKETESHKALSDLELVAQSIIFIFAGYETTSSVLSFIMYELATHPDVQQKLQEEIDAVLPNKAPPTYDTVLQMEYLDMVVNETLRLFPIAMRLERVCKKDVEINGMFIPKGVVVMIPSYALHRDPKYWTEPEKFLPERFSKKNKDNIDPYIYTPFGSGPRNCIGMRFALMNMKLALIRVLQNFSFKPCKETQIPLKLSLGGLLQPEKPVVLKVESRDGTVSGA
T1 sequence (P10635 whole entry): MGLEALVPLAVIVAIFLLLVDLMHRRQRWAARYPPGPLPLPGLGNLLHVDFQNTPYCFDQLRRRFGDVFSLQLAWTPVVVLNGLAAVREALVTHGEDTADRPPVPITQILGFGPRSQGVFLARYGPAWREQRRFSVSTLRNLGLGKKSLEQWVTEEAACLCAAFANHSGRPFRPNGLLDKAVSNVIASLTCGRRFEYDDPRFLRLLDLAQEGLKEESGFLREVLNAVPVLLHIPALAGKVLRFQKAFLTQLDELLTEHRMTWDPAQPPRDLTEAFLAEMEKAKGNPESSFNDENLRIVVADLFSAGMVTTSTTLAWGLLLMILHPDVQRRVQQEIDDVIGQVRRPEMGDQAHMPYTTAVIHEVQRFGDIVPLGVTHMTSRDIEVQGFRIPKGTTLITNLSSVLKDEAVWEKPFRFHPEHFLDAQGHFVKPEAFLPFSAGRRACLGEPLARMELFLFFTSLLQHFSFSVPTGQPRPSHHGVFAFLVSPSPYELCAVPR

## NCC(F)C[C@@H](N)CNC(=O)c1cc2ccc(-c3ccc(F)cc3)cc2[nH]1 (stereo partly drawn) [TXA11114, N-((2R)-2,5-diamino-4-fluoropentyl)-6-(4-fluorophenyl)-1H-indole-2-carboxamide]
Microsomal stability
  half-life at 1 µM: > 1 h
Plasma stability; dog
  half-life: > 2 h
Plasma stability; mouse
  half-life: > 2 h
Plasma stability; rat
  half-life: > 2 h
[1]; dog
  fraction unbound: 0.011
[1]; human, across the four species tested, read-out: Plasma protein binding
  fraction unbound: 0.01 to 0.02
[1]; human, read-out: Protein Binding
  fraction unbound: 0.01
[1]; mouse
  fraction unbound: 0.011
[1]; rat
  fraction unbound: 0.015
CYP2D6
  IC50: > 100 µM
CYP3A4
  IC50: 63 µM
P. aeruginosa ATCC 27853
  Concentrations at which impact on NCF hydrolysis is minimal: below 25 μg/mL
P. aeruginosa
  Lowest effective concentration for potentiation: 6.25 µg/mL
In vitro
  IC50 at 24 h: > 20 µM

Source: article PMC13114161 (Antibiotics, 2026)
